Measured values from patent US6087118A, “Method for diagnosing alzheimer's disease” (priority 1999, dated 2000).
“Also recorded” adds a separate entry of the source.

Assays:
[1] = test system: K+ channels in human platelets; test: Thrombin-stimulated 86Rb+ efflux from perfused platelets; assay type: cell-based; settings: for Effect on thrombin-stimulated 86Rb+ efflux, pooled data (FIGS. 1a, 2a) / Inhibition of thrombin-stimulated 86Rb+ efflux in 8 of 11 control subjects / Inhibition of thrombin-stimulated 86Rb+ efflux in the other three control subjects: control subjects; for Effect on thrombin-stimulated 86Rb+ efflux, pooled data (FIGS. 1a, 2a): n=11, P<0.0001; for Effect on thrombin-stimulated 86Rb+ efflux, pooled data (FIGS. 1a, 2a) / Effect on thrombin-stimulated 86Rb+ efflux, pooled data (FIGS. 1b, 2b) / Inhibition in controls (%) of thrombin-stimulated 86Rb+ efflux / Inhibition in Alzheimer's disease (%) of thrombin-stimulated 86Rb+ efflux: thrombin 0.3 IU/ml, apamin 100 nM, charybdotoxin 300 nM, α-dendrotoxin 200 nM; for Inhibition of thrombin-stimulated 86Rb+ efflux in 8 of 11 control subjects: the 8 of 11 that responded; for Inhibition of thrombin-stimulated 86Rb+ efflux in the other three control subjects: the other 3 of 11 (minimal effects); for Inhibition of thrombin-stimulated 86Rb+ efflux in 9 of 12 patients with AD: 9 of 12 (minimal effects); for Inhibition of thrombin-stimulated 86Rb+ efflux in the other three patients with AD: the other 3 of 12; for Effect on thrombin-stimulated 86Rb+ efflux, pooled data (FIGS. 1b, 2b): patients with Alzheimer's disease, n=12; for Inhibition in controls (%) of thrombin-stimulated 86Rb+ efflux: platelets of age- and sex-matched controls; for Inhibition in controls (%) of thrombin-stimulated 86Rb+ efflux / Inhibition in Alzheimer's disease (%) of thrombin-stimulated 86Rb+ efflux: median (interquartile range); for Inhibition in Alzheimer's disease (%) of thrombin-stimulated 86Rb+ efflux: platelets of patients with AD
Protocol: (§1) Platelet perfusion^17. Blood was drawn by venepuncture and anticoagulated with acid-citratedextrose (ACD). Platelets were prepared by centrifugation within an hour of venesection and incubated with ^86 Rb^+ for 2 h. The platelet suspension (2.5×10^7 platelets per ml) was then injected into perfusion chambers, where the cells settled and became immobilized on inert filters (Millipore). The platelets were then continuously perfused with Krebs solution, to allow them to stabilize for 20 min before the start of each experiment. The perfusion buffer was then changed for 5 min to Krebs solution containing thrombin (0.3 IU/ml) or ionomycin (1 μM), after which the perfusion was switched to the original solution and continued for another 20 min. From 0 to 10 min after the addition of thrombin or ionomycin the perfusate was collected at 1-min intervals and thereafter at 2-min intervals. The solutions used for perfusion were bubbled with 95% O2 and 5% CO2 throughout the experiment (pH 7.4). At the end of the experiment the polycarbonate filters were retrieved and placed in scintillation vials, to which 3.5 ml of Aquasafe 500 scintillation fluid was added. The radioactivity in the perfusates and filters was determined by liquid scintillation counting in a Beckmann LS 6000 SE counter and the loss of radioactivity from the cells was calculated. The amount of ^86 Rb^+ (pmol) in each fraction of perfusate collected was determined using the specific activity of the isotope. The radioactivity was measured in each fraction and the results were plotted as the cumulative efflux of ^86 Rb^+ against time.
(§2) Buffers and drucas. ACD contained citric acid (15 g), trisodium citrate (25 g), and dextrose (20 g) in 1 l of distilled water. Krebs buffer contained (mmol/l): NaCl (119); KCl (4.6); CaCl2 (1.5); NaH2 PO4 (1.2); MgCl2 (1.2); NaHCO3 (15); and glucose (11). Apamin, charybdotoxin, α-dendrotoxin, iberiotoxin, ionomycin, and human thrombin were purchased from Sigma Chemical Company, Poole, Dorset. ^86 RbCl was purchased from Amersham International plc (Amersham, Bucks).
(§3) Thrombin and ionomycin. Solutions of thrombin were prepared freshly in distilled water for each experiment and further diluted to a concentration of 0.3 IU/ml in Krebs solution. Stock solutions of ionomycin (10 mM in dimethylsulphoxide) were prepared and stored in aliquots at 4° C. On the day of the experiment ionomycin was further diluted in Krebs solution to a concentration of 1 μM.
(§4) Apamin, charybdotoxin, iberiotoxin, and α-dendrotoxin. Apamin, charybdotoxin, iberiotoxin, and α-dendrotoxin were […]. Apamin, (100 nM), charybdotoxin (300 nM), iberiotoxin (300 nM), and α-dendrotoxin (200 nM) were reconstituted in distilled water and stored in aliquots at -20° C. On the day of the experiment the toxins were further diluted in Krebs solution. Apamin was pre-incubated with the platelets (added at time -20 min) and charybdotoxin, iberiotoxin, and α-dendrotoxin were added with thrombin (at 0 min) for a period of 5 min.
(§5) Data Dresentation and analysis. The results in FIGS. 1-3 are shown as cumulative effluxes of ^86 Rb^+ from 0 to 14 min. The data are shown as means±SEMs (n=number of experiments with platelets obtained from different volunteers). The efflux data were analyzed using analysis of variance with repeated measures.
(§6) K^+ channel fluxes. Platelets were prepared and their K^+ channel fluxes studied as described by DeSilva, H. A. et al^17, by loading fresh platelets with ^86 Rb^+ (used as a radioactive analogue of K^+)^18,19 and stimulating ^86 Rb^+ efflux with thrombin and ionomycin.

[2] = test system: K+ channels in human platelets; test: Ionomycin-stimulated 86Rb+ efflux from perfused platelets; assay type: cell-based; settings: for Effect on ionomycin-stimulated 86Rb+ efflux, pooled data (FIG. 3a) / Inhibition of ionomycin-stimulated 86Rb+ efflux in 9 of 11 control subjects / Inhibition of ionomycin-stimulated 86Rb+ efflux in two control subjects: control subjects; for Effect on ionomycin-stimulated 86Rb+ efflux, pooled data (FIG. 3a) / Effect on ionomycin-stimulated 86Rb+ efflux, pooled data (FIG. 3b): n=11; for Effect on ionomycin-stimulated 86Rb+ efflux, pooled data (FIG. 3a) / Effect on ionomycin-stimulated 86Rb+ efflux, pooled data (FIG. 3b) / Inhibition in controls (%) of ionomycin-stimulated 86Rb+ efflux / Inhibition in Alzheimer's disease (%) of ionomycin-stimulated 86Rb+ efflux: ionomycin 1 μM, apamin 100 nM, charybdotoxin 300 nM; for Effect on ionomycin-stimulated 86Rb+ efflux, pooled data (FIG. 3a): P<0.0001; for Inhibition of ionomycin-stimulated 86Rb+ efflux in 9 of 11 control subjects: the 9 of 11 that responded; for Inhibition of ionomycin-stimulated 86Rb+ efflux in two control subjects: the other 2 of 11 (minimal effects); for Inhibition of ionomycin-stimulated 86Rb+ efflux in 8 of 11 patients with AD: 8 of 11 (minimal effects); for Effect on ionomycin-stimulated 86Rb+ efflux, pooled data (FIG. 3b): patients with Alzheimer's disease, P=0.883; for Inhibition in controls (%) of ionomycin-stimulated 86Rb+ efflux: platelets of age- and sex-matched controls; for Inhibition in controls (%) of ionomycin-stimulated 86Rb+ efflux / Inhibition in Alzheimer's disease (%) of ionomycin-stimulated 86Rb+ efflux: median (interquartile range); for Inhibition in Alzheimer's disease (%) of ionomycin-stimulated 86Rb+ efflux: platelets of patients with AD
Protocol: as §1, §2, §3, §4, §5, §6

[3] = test system: sodium/potassium pump; test: Uptake of 86Rb+ by platelets; assay type: cell-based, human; settings: unpublished observations of de Silva & Aronson

| Compound | Effect on thrombin-stimulated 86Rb+ efflux, pooled data (FIGS. 1a, 2a) [1] | Inhibition of thrombin-stimulated 86Rb+ efflux in 8 of 11 control subjects [1] | Inhibition of thrombin-stimulated 86Rb+ efflux in the other three control subjects [1] | Inhibition of thrombin-stimulated 86Rb+ efflux in 9 of 12 patients with AD [1] | Inhibition of thrombin-stimulated 86Rb+ efflux in the other three patients with AD [1] | Effect on thrombin-stimulated 86Rb+ efflux, pooled data (FIGS. 1b, 2b) [1] | Inhibition in controls (%) of thrombin-stimulated 86Rb+ efflux [1] | Inhibition in Alzheimer's disease (%) of thrombin-stimulated 86Rb+ efflux [1] | Effect on ionomycin-stimulated 86Rb+ efflux, pooled data (FIG. 3a) [2] | Inhibition of ionomycin-stimulated 86Rb+ efflux in 9 of 11 control subjects [2] | Inhibition of ionomycin-stimulated 86Rb+ efflux in two control subjects [2] | Inhibition of ionomycin-stimulated 86Rb+ efflux in 8 of 11 patients with AD [2] | Effect on ionomycin-stimulated 86Rb+ efflux, pooled data (FIG. 3b) [2] | Inhibition in controls (%) of ionomycin-stimulated 86Rb+ efflux ([2]; iberiotoxin 300 nM) | Inhibition in Alzheimer's disease (%) of ionomycin-stimulated 86Rb+ efflux ([2]; iberiotoxin 300 nM) | further results |
| --- | --- | --- | --- | --- | --- | --- | --- | --- | --- | --- | --- | --- | --- | --- | --- | --- |
| CC(C)C[C@@H]1NC(=O)[C@H](C)NC(=O)[C@H]([C@@H](C)O)NC(=O)[C@H](CCC(=O)O)NC(=O)[C@@H]2CCCN2C(=O)[C@H](C)NC(=O)[C@H](CCCCN)NC(=O)[C@@H]2CSSC[C@@H](C(=O)N[C@@H](CCC(N)=O)C(=O)N[C@@H](CCC(N)=O)C(=O)N[C@@H](Cc3cnc[nH]3)C(N)=O)NC(=O)[C@H](CCCNC(=N)N)NC(=O)[C@H](CCCNC(=N)N)NC(=O)[C@H](C)NC(=O)[C@H](CSSC[C@H](N)C(=O)N[C@@H](CC(N)=O)C(=O)N2)NC1=O [Apamin] | inhibited | at least 18% | less than 10% | less than 10% | at least 16% | no significant effect | 26 (20-27) % | 0 (0-0) % | inhibited | at least 18% | less than 12% | less than 12% | no significant effect | 30 (20-31) % | 1 (0-20) % | Effect on thrombin-stimulated 86Rb+ efflux, pooled data (FIGS. 1a, 2a) ([1]; listed as apamin): significant reductions; Effect on thrombin-stimulated 86Rb+ efflux, pooled data (FIGS. 1b, 2b) ([1]; listed as apamin): neither apamin nor charybdotoxin caused significant reductions; Effect on ionomycin-stimulated 86Rb+ efflux, pooled data (FIG. 3a) ([2]; listed as apamin): significant reductions; Effect on ionomycin-stimulated 86Rb+ efflux, pooled data (FIG. 3b) ([2]; listed as apamin): minimal effects |
| C[C@@H]1O[C@@H](O[C@H]2C[C@@H](O)[C@]3(CO)[C@H]4[C@H](O)C[C@]5(C)[C@@H](C6=CC(=O)OC6)CC[C@]5(O)[C@@H]4CC[C@]3(O)C2)[C@H](O)[C@H](O)[C@H]1O [ouabain] |  |  |  |  |  |  |  |  |  |  |  |  |  |  |  | Share of 86Rb+ uptake in platelets inhibitable by ouabain [3]: over 90% |
| charybdotoxin | inhibited; also recorded: significant reductions | ≥ 16% | less than 10% | less than 10% | at least 16% | no significant effect; also recorded: neither apamin nor charybdotoxin caused significant reductions | 22 (18-29) % | 0 (0-4) % | inhibited; also recorded: significant reductions | ≥ 22% | less than 12% | less than 12% | no significant effect; also recorded: minimal effects | 28 (20-34) % | 4 (1-26) % |  |
| iberiotoxin (QFTDVDCSVSKECWSVCKDLFGVDRGKCMGKKCRCYQ; UniProt P24663 1-37, looked up) [purchased from Sigma] |  |  |  |  |  |  |  |  |  |  |  |  |  | 2 (0-3) % | 0 (0-4) % | Effect on ionomycin-stimulated effluxes in platelets from any individual ([2]; patients with AD and controls, iberiotoxin 300 nM): no effect |
| α-dendrotoxin | inhibited |  |  |  |  | inhibited | 26 (20-29) % | 19 (18-27) % |  |  |  |  |  |  |  |  |
